Experimental data reported in patent publication US9242984B2, “Pyrazolyl derivatives as Syk inhibitors” (Merck Sharp & Dohme Corp., priority 2012, dated 2016).
Like-named read-outs stand apart in the source and are kept apart here.

Molecular target: T1, recombinant human Syk (GST-hSyk fusion protein) (Homo sapiens, UniProt P43405)
T1 construct: purchased Carna Biosciences 08-176
Experiment: Homogeneous Time-Resolved Fluorescence (HTRF) assay for the recombinant human Syk enzyme
Type: biochemical
Conditions: 10-dose titration, 25 μM ATP
Protocol: Syk inhibition may be determined using the following assay protocol:
Homogeneous Time-Resolved Fluorescence (HTRF) Assay for the Recombinant Human Syk Enzyme:
A recombinant GST-hSyk fusion protein was used to measure potency of compounds to inhibit human Syk activity. The recombinant human GST-Syk (Carna Biosciences #08-176) (5 pM final concentration) was incubated with various concentrations of the inhibitor diluted in DMSO (0.1% final concentration) for 10 minutes at room temperature in 15 mM Tris-HCl (pH 7.5), 0.01% tween 20, 2 mM DTT in 384 well plate format. To initiate the reaction the biotinylated substrate peptide (250 nM final concentration) that contains the phosphorylation site for Syk was added with magnesium (5 mM final concentration) and ATP (25 μM final concentration). Final volume of the reaction was 10 μL. Phosphorylation of the peptide was allowed to proceed for 45 minutes at room temperature. To quench the reaction and detect the phosphorylated product, 2 nM of a Europium-anti-phosphotyrosine antibody (Perkin Elmer #AD0161) and 70 nM SA-APC (Perkin-Elmer #CR130-100) were added together in 15 mM Tris pH 7.5, 40 mM EDTA, 0.01% tween 20. Final volume of the quenching solution was 10 μL. The resulting HTRF signal was measured after 30 minutes on an EnVision (Perkin-Elmer) reader using a time-resolved fluorescence protocol. IC50 was determined following 10-dose titration (10 μM to 0.508 nM) and four parameter logistic curve fitting using the Merck Assay Data Analyzer. The rhSyk activity (IC50) is expressed as +++(100 nM or less), ++(between 100 and 1000 nM), +(between 1 and 10 μM).

[1] = IC50 class, read-out: rhSYK Activity

Molecule	IC50 [1]	IC50 (read-out: rhSYK IC50)
Cc1cc(Nc2cc(C(F)(F)F)ccn2)nc(-c2ccnn2C)n1 [Example 1.45, 6-methyl-2-(1-methyl-1H-pyrazol-5-yl)-N-[4-(trifluoro-methyl)pyridin-2-yl]pyrimidin-4-amine]	100 to 1000 nM	
Cc1cc(Nc2nccc(C(F)(F)F)n2)cc(-c2cnn(C[C@@H](O)CO)c2)c1 [Example 3.41, (2R)-3-[4-(3-methyl-5-{[4-(trifluoromethyl)pyrimidin-2-yl]amino}-phenyl)-1H-pyrazol-1-yl]propane-1,2-diol]	≤ 100 nM	
Cc1cc(Nc2cc(C(F)(F)F)ccn2)nc(-c2cnn(CC(=O)O)c2)c1 [Example 1.31, [4-(4-methyl-6-{[4-(trifluoromethyl)pyridin-2-yl]amino}pyridin-2-yl)-1H-pyrazol-1-yl]acetic acid]	≤ 100 nM	
Cc1cc(Nc2ncc(Cl)c(C)n2)cc(-c2cnn(CC3CNC(=O)O3)c2)c1 (centres unmarked) [Example 2.26, 5-[(4-{3-[(5-chloro-4-methylpyrimidin-2-yl)amino]-5-methylphenyl}-1H-pyrazol-1-yl)methyl]-1,3-oxazolidin-2-one]	≤ 100 nM	
CCOC(=O)CCn1cc(-c2cc(C)cc(Nc3cc(C)ccn3)n2)cn1 [Example 1.26, ethyl 3-(4-{4-methyl-6-[(4-methylpyridin-2-yl)amino]pyridin-2-yl}-1H-pyrazol-1-yl)propanoate]	100 to 1000 nM	
CCOC(=O)CCn1cc(-c2cc(C)cc(Nc3cc(C(F)(F)F)ccn3)n2)cn1 [Example 1.16, ethyl 3-[4-(4-methyl-6-{[4-(trifluoromethyl)pyridin-2-yl]amino}pyridin-2-yl)-1H-pyrazol-1-yl]propanoate]	≤ 100 nM	
Cc1cc(Nc2nccc(C(F)(F)F)n2)cc(-c2cnn(C[C@@H](O)C(=O)O)c2)n1 [Example 11.20, (2R)-2-hydroxy-3-[4-(6-methyl-4-{[4-(trifluoro-methyl)pyrimidin-2-yl]amino}pyridin-2-yl)-1H-pyrazol-1-yl]propanoic acid]	≤ 100 nM	
Cc1cc(Nc2nccc(C(F)(F)F)n2)cc(-c2cnn3ncccc23)c1 [Example 2.35, N-(3-methyl-5-pyrazolo[1,5-b]pyridazin-3-ylphenyl)-4-(trifluoromethyl)pyrimidin-2-amine]	≤ 100 nM	
Cc1cc(Nc2nccc(C(F)F)n2)cc(-c2cnn(CC(C)(O)C(C)(C)O)c2)c1 (centres unmarked) [Example 21.6, 1-[4-(3-{[4-(difluoromethyl)pyrimidin-2-yl]amino}-5-methylphenyl)-1H-pyrazol-1-yl]-2,3-dimethylbutane-2,3-diol]	≤ 100 nM	
3-[4-(4-methyl-6-{[4-(trifluoromethyl)pyridin-2-yl]amino}pyrimidin-2-yl)-1H-pyrazol-1-yl]propanoic acid [Example 1.40]	≤ 100 nM	
Cc1cc(Nc2nccc(C(F)F)n2)cc(-c2cnn(CC3(C)CNC(=O)C3)c2)c1 (centres unmarked) [Example 2.80, 4-{[4-(3-{[4-(difluoromethyl)pyrimidin-2-yl]amino}-5-methylphenyl)-1H-pyrazol-1-yl]methyl}-4-methylpyrrolidin-2-one]	≤ 100 nM	
Cc1cc(Nc2cc(C(F)(F)F)ccn2)nc(-c2cnn3c2CCC3)c1 [Example 1.15, 6-(5,6-dihydro-4H-pyrrolo[1,2-b]pyrazol-3-yl)-4-methyl-N-[4-(trifluoromethyl)pyridin-2-yl]pyridin-2-amine]	≤ 100 nM	
Cc1cc(Nc2nccc(C)n2)cc(-c2cnn(C3CCC(C(=O)O)CC3)c2)c1 (centres unmarked) [Example 1.59, 4-(4-{3-methyl-5-[(4-methylpyrimidin-2-yl)amino]phenyl}-1H-pyrazol-1-yl)cyclohexanecarboxylic acid]	≤ 100 nM	
Cc1cc(Nc2nccc(C(F)F)n2)cc(-c2cnn(C3CCC(C)(C)C(O)C3(C)O)c2)c1 (centres unmarked) [Example 22.8, 6-[4-(3-{[4-(difluoromethyl)pyrimidin-2-yl]amino}-5-methylphenyl)-1H-pyrazol-1-yl]-1,3,3-trimethylcyclohexane-1,2-diol]	≤ 100 nM	5.9 nM
Cc1cc(Nc2nccc(C(C)(C)C)n2)cc(-c2cnn(C[C@H](O)C(N)=O)c2)c1 [Example 6.7, (2S)-3-(4-{3-[(4-tert-butyl-pyrimidin-2-yl)amino]-5-methylphenyl}-1H-pyrazol-1-yl)-2-hydroxy-propanamide]	≤ 100 nM	
Cc1cc(Nc2nccc(C(F)F)n2)cc(-c2cnn(C(C[C@H](C)O)[C@@H](C)O)c2)c1 (stereo in doubt) [Example 2.49, 3-[4-(3-{[4-(difluoromethyl)pyrimidin-2-yl]amino}-5-methylphenyl)-1H-pyrazol-1-yl]hexane-2,5-diol]	≤ 100 nM	
Cc1cc(Nc2nccc(C(F)(F)F)n2)cc(-c2cnn(C[C@H](C)CO)c2)c1 [Example 3.5, (2s)-2-methyl-3-[4-(3-methyl-5-{[4-(trifluoromethyl)-pyrimidin-2-yl]amino}-phenyl)-1H-pyrazol-1-yl]-propan-1-ol]	≤ 100 nM	
Cc1cc(Nc2nccc(OCCO)n2)cc(-c2cnn(C3CCC(C(N)=O)CC3)c2)c1 (centres unmarked) [Example 8.5, 4-[4-(3-{[4-(2-hydroxy-ethoxy)pyrimidin-2-yl]amino}-5-methylphenyl)-1H-pyrazol-1-yl]-cyclo-hexanecarboxamide]	≤ 100 nM	
Cc1cc(Nc2nccc(C(F)F)n2)cc(-c2cnn(CCNC(=O)C3CC3)c2)c1 [Example 26.1, N-(2-(4-(3-((4-(Difluoromethyl)pyrimidin-2-yl)amino)-5-methylphenyl)-1H-pyrazol-1-yl)ethyl)cyclopropanecarboxamide]	≤ 100 nM	25.2 nM
Cc1cc(Nc2nccc(C(F)(F)F)n2)cc(-c2cnn(C3CCC(C(N)=O)C(C)(C)C3)c2)c1 (centres unmarked) [Example 8.7, 2,2-dimethyl-4-[4-(3-methyl-5-{[4-(trifluoromethyl)-pyrimidin-2-yl]amino}-phenyl)-1H-pyrazol-1-yl]cyclohexane-carboxamide]	≤ 100 nM	
COCC(=O)NCCn1cc(-c2cc(C)cc(Nc3nccc(C(F)F)n3)c2)cn1 [Example 26.5, N-{2-[4-(3-{[4-(difluoromethyl)pyrimidin-2-yl]amino}-5-methylphenyl)-1H-pyrazol-1-yl]ethyl}-2-methoxyacetamide]	≤ 100 nM	
Cc1cc(Nc2cc(C(F)(F)F)ccn2)nc(-c2cnn(C[C@H](O)C(N)=O)c2)c1 [Example 6.15, (2S)-2-hydroxy-3-[4-(4-methyl-6-{[4-(trifluoro-methyl)-pyridin-2-yl]amino}-pyridin-2-yl)-1H-pyrazol-1-yl]-propanamide]	≤ 100 nM	
Cc1cc(Nc2nccc(C(F)(F)F)n2)cc(-c2cnn(C[C@H](O)C(N)=O)c2)c1 [Example 8.16, (2s)-2-hydroxy-3-[4-(3-methyl-5-{[4-(trifluorometh-yl)pyrimidin-2-yl]amino}phenyl)-1H-pyrazol-1-yl]propanamide]	≤ 100 nM	
Cc1cc(Nc2nccc(C(F)F)n2)cc(-c2cnn(CC3OC(=O)NC3C)c2)c1 (single isomer, unassigned) [Example 23.10, 5-{[4-(3-{[4-(difluoromethyl)pyrimidin-2-yl]amino}-5-methylphenyl)-1H-pyrazol-1-yl]methyl}-4-methyl-1,3-oxazolidin-2-one]	≤ 100 nM	
O=C1NCC(Cn2cc(-c3cccc(Nc4nccc(C(F)F)n4)c3)cn2)O1 (centres unmarked) [Example 2.66, 5-{[4-(3-{[4-(difluoromethyl)pyrimidin-2-yl]amino}phenyl)-1H-pyrazol-1-yl]methyl}-1,3-oxazolidin-2-one]	≤ 100 nM	
Cc1cc(Nc2nccc(C(F)(F)F)n2)cc(-c2cnn(Cc3cc(C)no3)c2)c1 [Example 3.25, N-(3-methyl-5-{1-[(3-methylisoxazol-5-yl)methyl]-1H-pyrazol-4-yl}phenyl)-4-(trifluoromethyl)-pyrimidin-2-amine]	≤ 100 nM	
Cc1cc(Nc2nccc(C(F)F)n2)cc(-c2cnn(C[C@@H]3CNCCO3)c2)c1 [Example 2.83, 4-(difluoromethyl)-N-(3-methyl-5-{1-[(2S)-morpholin-2-ylmethyl]-1H-pyrazol-4-yl}phenyl)pyrimidin-2-amine]	≤ 100 nM	
Cc1cc(Nc2cc(C(F)F)ccn2)nc(-c2cnn(CC3CNC(=O)O3)c2)c1 (centres unmarked) [Example 3.81, 5-{[4-(6-{[4-(difluoromethyl)pyridin-2-yl]amino}-4-methylpyridin-2-yl)-1H-pyrazol-1-yl]methyl}-1,3-oxazolidin-2-one]	≤ 100 nM	
Cc1cc(Nc2nccc(C(F)(F)F)n2)cc(-c2cnn(CC(O)C(F)(F)F)c2)c1 (single isomer, unassigned) [Example 3.44, 1,1,1-trifluoro-3-[4-(3-methyl-5-{[4-(trifluoromethyl)pyrimidin-2-yl]amino}phenyl)-1H-pyrazol-1-yl]propan-2-ol]	≤ 100 nM	
Cc1cc(Nc2nccc(C(C)(F)F)n2)cc(-c2cnn(CC3OC(=O)NC3(C)C)c2)c1 (centres unmarked) [Example 3.101, 5-{[4-(3-{[4-(1,1-difluoroethyl)pyrimidin-2-yl]amino}-5-methylphenyl)-1H-pyrazol-1-yl]methyl}-4,4-dimethyl-1,3-oxazolidin-2-one]	≤ 100 nM	
